# Source: US20250268884A1, “Deuterated Domperidone for Treating Gastroparesis” (CinDome Pharma, Inc., priority 2022, published 2025)
# Tested on: adults with idiopathic or diabetic gastroparesis
# Experiment: ANMS GCSI-DD total and subscale scores, ANMS GCSI-DD manual scoring method, Phase 2a
# Format: in vivo, human
# Conditions: for ANMS GCSI-DD early satiety subscale score, Baseline / ANMS GCSI-DD early satiety subscale score, Change from baseline to Day 14/EOT / ANMS GCSI-DD early satiety subscale score, Day 14/EOT / ANMS GCSI-DD early satiety subscale score, Percent change from baseline to Day 14/EOT / ANMS GCSI-DD nausea subscale score, Baseline / ANMS GCSI-DD nausea subscale score, Change from baseline to Day 14/EOT / ANMS GCSI-DD nausea subscale score, Day 14/EOT / ANMS GCSI-DD nausea subscale score, Percent change from baseline to Day 14/EOT / ANMS GCSI-DD postprandial fullness subscale score, Baseline / ANMS GCSI-DD postprandial fullness subscale score, Change from baseline to Day 14/EOT / ANMS GCSI-DD postprandial fullness subscale score, Day 14/EOT / ANMS GCSI-DD postprandial fullness subscale score, Percent change from baseline to Day 14/EOT / ANMS GCSI-DD total score, Baseline / ANMS GCSI-DD total score, Day 14/EOT / ANMS GCSI-DD total score, change from baseline to Day 14/EOT / ANMS GCSI-DD total score, percent change from baseline to Day 14/EOT / ANMS GCSI-DD upper abdominal pain subscale score, Baseline / ANMS GCSI-DD upper abdominal pain subscale score, Change from baseline to Day 14/EOT / ANMS GCSI-DD upper abdominal pain subscale score, Day 14/EOT / ANMS GCSI-DD upper abdominal pain subscale score, Percent change from baseline to Day 14/EOT / ANMS GCSI-DD vomiting subscale score, Baseline / ANMS GCSI-DD vomiting subscale score, Change from baseline to Day 14/EOT / ANMS GCSI-DD vomiting subscale score, Day 14/EOT / ANMS GCSI-DD vomiting subscale score, Percent change from baseline to Day 14/EOT: mean, ITT Population
# Description: As known in the art, the ANMS GCSI-DD covers 5 core relevant symptoms of gastroparesis: nausea, early satiety, postprandial fullness, upper abdominal pain and vomiting. Bloating is included as an exploratory symptom. Symptoms are rated on a severity numeric response scale from 0 (none) to 4 (very severe). Vomiting is captured on a frequency response scale and scored as follows: 0 for no episodes, 1 for one episode, 2 for 2 episodes, 3 for 3 episodes, and 4 for 4 or more episodes. In some embodiments, subjects recall symptoms over the previous 24 hours and completes the ANMS GCSI-DD patient-reported symptom questionnaire. In certain embodiments, the total ANMS GCSI-DD score is calculated as the mean of the 3 subscale scores for severity of nausea/vomiting, postprandial fullness/early satiety, and bloating. See, e.g., “The Use Manual for the ANMS GCSI-DD,” American Neurogastroenterology and Motility Society Gastroparesis Cardinal Symptom Index Daily Diary, 2018; https://www.fda.gov/media/125038/download. In other embodiments, the total ANMS GCSI-DD score is calculated using the ‘manual’ scoring method. The ANMS GCSI-DD manual scoring method is generated by summing the scores on each of the five symptom items (nausea, early satiety, postprandial fullness, upper abdominal pain, and number of vomiting episodes) and then dividing by 5, that is the number of items within the gastroparesis related symptom score. […] The ANMS GCSI-DD gastroparesis symptom daily score can range from 0 to 4. High scores on the ANMS GCSI-DD reflect greater symptom severity. See, e.g., “User Manuel for the ANMS GCSI-DD,” Federal Drug Administration at https://www.fda.gov/media/125038/download, which is hereby incorporated by reference.
# The severity scores of 4 gastroparesis-related symptoms (nausea, early satiety, postprandial fullness, upper abdominal pain) range from 0-none to 4-very severe. The vomiting score assesses the number of vomiting episodes during the day, capped at a maximum of 4; thus, the scores for vomiting range from 0 (no episodes of vomiting) to 4 (4 or more episodes of vomiting). Vomiting frequency is scored as 0 episodes, 1 episode, 2 episodes, 3 episodes, or 4 or more episodes (capped as 4).
# Table 11 presents the ANMS GCSI-DD total and subscale scores and change and percent change from baseline for the ITT Population using the ANMS GC SI-DD Manual scoring method. […] Subjects receiving placebo also experienced decreases in ANMS GCSI-DD total and subscale scores.
compound,measurement,setting,value
"[2H]c1c([2H])c([2H])c2c([nH]c(=O)n2CCCN2CCC(n3c(=O)[nH]c4cc(Cl)ccc43)CC2)c1[2H] [Deudomperidone, 1-{3-[4-(5-chloro-2-oxo-2,3-dihydro-1H-1,3-benzodiazol-1-yl)piperidin-1yl]propyl}-2,3-dihydro(4,5,6,7-D4)-1H-1,3-benzodiazol-2-one]","ANMS GCSI-DD early satiety subscale score, Baseline",5 mg BID,2.63
same,"ANMS GCSI-DD early satiety subscale score, Change from baseline to Day 14/EOT",5 mg BID,−0.85
same,"ANMS GCSI-DD early satiety subscale score, Day 14/EOT",5 mg BID,1.78
same,"ANMS GCSI-DD early satiety subscale score, Percent change from baseline to Day 14/EOT",5 mg BID,−30.65%
same,"ANMS GCSI-DD nausea subscale score, Baseline",5 mg BID,2.59
same,"ANMS GCSI-DD nausea subscale score, Change from baseline to Day 14/EOT",5 mg BID,−0.93
same,"ANMS GCSI-DD nausea subscale score, Day 14/EOT",5 mg BID,1.67
same,"ANMS GCSI-DD nausea subscale score, Percent change from baseline to Day 14/EOT",5 mg BID,−41.32%
same,"ANMS GCSI-DD postprandial fullness subscale score, Baseline",5 mg BID,2.93
same,"ANMS GCSI-DD postprandial fullness subscale score, Change from baseline to Day 14/EOT",5 mg BID,−0.70
same,"ANMS GCSI-DD postprandial fullness subscale score, Day 14/EOT",5 mg BID,2.22
same,"ANMS GCSI-DD postprandial fullness subscale score, Percent change from baseline to Day 14/EOT",5 mg BID,−26.11%
same,"ANMS GCSI-DD total score, Baseline",5 mg BID,2.16
same,"ANMS GCSI-DD total score, Day 14/EOT",5 mg BID,1.47
same,"ANMS GCSI-DD total score, change from baseline to Day 14/EOT",5 mg BID,−0.69
same,"ANMS GCSI-DD total score, percent change from baseline to Day 14/EOT",5 mg BID,−35.01%
same,"ANMS GCSI-DD upper abdominal pain subscale score, Baseline",5 mg BID,2.19
same,"ANMS GCSI-DD upper abdominal pain subscale score, Change from baseline to Day 14/EOT",5 mg BID,−0.85
same,"ANMS GCSI-DD upper abdominal pain subscale score, Day 14/EOT",5 mg BID,1.33
same,"ANMS GCSI-DD upper abdominal pain subscale score, Percent change from baseline to Day 14/EOT",5 mg BID,−43.15%
same,"ANMS GCSI-DD vomiting subscale score, Baseline",5 mg BID,0.44
same,"ANMS GCSI-DD vomiting subscale score, Change from baseline to Day 14/EOT",5 mg BID,−0.11
same,"ANMS GCSI-DD vomiting subscale score, Day 14/EOT",5 mg BID,0.33
same,"ANMS GCSI-DD vomiting subscale score, Percent change from baseline to Day 14/EOT",5 mg BID,−64.00%
same,"ANMS GCSI-DD early satiety subscale score, Baseline",10 mg BID,2.67
same,"ANMS GCSI-DD early satiety subscale score, Change from baseline to Day 14/EOT",10 mg BID,−1.08
same,"ANMS GCSI-DD early satiety subscale score, Day 14/EOT",10 mg BID,1.62
same,"ANMS GCSI-DD early satiety subscale score, Percent change from baseline to Day 14/EOT",10 mg BID,−40.56%
same,"ANMS GCSI-DD nausea subscale score, Baseline",10 mg BID,2.52
same,"ANMS GCSI-DD nausea subscale score, Change from baseline to Day 14/EOT",10 mg BID,−1.20
same,"ANMS GCSI-DD nausea subscale score, Day 14/EOT",10 mg BID,1.34
same,"ANMS GCSI-DD nausea subscale score, Percent change from baseline to Day 14/EOT",10 mg BID,−48.88%
same,"ANMS GCSI-DD postprandial fullness subscale score, Baseline",10 mg BID,3.01
same,"ANMS GCSI-DD postprandial fullness subscale score, Change from baseline to Day 14/EOT",10 mg BID,−1.24
same,"ANMS GCSI-DD postprandial fullness subscale score, Day 14/EOT",10 mg BID,1.79
same,"ANMS GCSI-DD postprandial fullness subscale score, Percent change from baseline to Day 14/EOT",10 mg BID,−41.52%
same,"ANMS GCSI-DD total score, Baseline",10 mg BID,2.14
same,"ANMS GCSI-DD total score, Day 14/EOT",10 mg BID,1.17
same,"ANMS GCSI-DD total score, change from baseline to Day 14/EOT",10 mg BID,−0.98
same,"ANMS GCSI-DD total score, percent change from baseline to Day 14/EOT",10 mg BID,−44.07%
same,"ANMS GCSI-DD upper abdominal pain subscale score, Baseline",10 mg BID,1.79
same,"ANMS GCSI-DD upper abdominal pain subscale score, Change from baseline to Day 14/EOT",10 mg BID,−0.80
same,"ANMS GCSI-DD upper abdominal pain subscale score, Day 14/EOT",10 mg BID,0.97
same,"ANMS GCSI-DD upper abdominal pain subscale score, Percent change from baseline to Day 14/EOT",10 mg BID,−50.43%
same,"ANMS GCSI-DD vomiting subscale score, Baseline",10 mg BID,0.71
same,"ANMS GCSI-DD vomiting subscale score, Change from baseline to Day 14/EOT",10 mg BID,−0.59
same,"ANMS GCSI-DD vomiting subscale score, Day 14/EOT",10 mg BID,0.14
same,"ANMS GCSI-DD vomiting subscale score, Percent change from baseline to Day 14/EOT",10 mg BID,−71.73%
same,"ANMS GCSI-DD early satiety subscale score, Baseline",20 mg QD,2.64
same,"ANMS GCSI-DD early satiety subscale score, Change from baseline to Day 14/EOT",20 mg QD,−1.44
same,"ANMS GCSI-DD early satiety subscale score, Day 14/EOT",20 mg QD,1.20
same,"ANMS GCSI-DD early satiety subscale score, Percent change from baseline to Day 14/EOT",20 mg QD,−54.88%
same,"ANMS GCSI-DD nausea subscale score, Baseline",20 mg QD,2.67
same,"ANMS GCSI-DD nausea subscale score, Change from baseline to Day 14/EOT",20 mg QD,−1.93
same,"ANMS GCSI-DD nausea subscale score, Day 14/EOT",20 mg QD,0.73
same,"ANMS GCSI-DD nausea subscale score, Percent change from baseline to Day 14/EOT",20 mg QD,−62.56%
same,"ANMS GCSI-DD postprandial fullness subscale score, Baseline",20 mg QD,2.84
same,"ANMS GCSI-DD postprandial fullness subscale score, Change from baseline to Day 14/EOT",20 mg QD,−1.31
same,"ANMS GCSI-DD postprandial fullness subscale score, Day 14/EOT",20 mg QD,1.53
same,"ANMS GCSI-DD postprandial fullness subscale score, Percent change from baseline to Day 14/EOT",20 mg QD,−45.50%
same,"ANMS GCSI-DD total score, Baseline",20 mg QD,2.13
same,"ANMS GCSI-DD total score, Day 14/EOT",20 mg QD,0.88
same,"ANMS GCSI-DD total score, change from baseline to Day 14/EOT",20 mg QD,−1.25
same,"ANMS GCSI-DD total score, percent change from baseline to Day 14/EOT",20 mg QD,−55.99%
same,"ANMS GCSI-DD upper abdominal pain subscale score, Baseline",20 mg QD,1.96
same,"ANMS GCSI-DD upper abdominal pain subscale score, Change from baseline to Day 14/EOT",20 mg QD,−1.09
same,"ANMS GCSI-DD upper abdominal pain subscale score, Day 14/EOT",20 mg QD,0.87
same,"ANMS GCSI-DD upper abdominal pain subscale score, Percent change from baseline to Day 14/EOT",20 mg QD,−41.03%
same,"ANMS GCSI-DD vomiting subscale score, Baseline",20 mg QD,0.53
same,"ANMS GCSI-DD vomiting subscale score, Change from baseline to Day 14/EOT",20 mg QD,−0.47
same,"ANMS GCSI-DD vomiting subscale score, Day 14/EOT",20 mg QD,0.07
same,"ANMS GCSI-DD vomiting subscale score, Percent change from baseline to Day 14/EOT",20 mg QD,−94.64%
same,"ANMS GCSI-DD total score and all subscale scores at Day 14/EOT, manual scoring","all deudomperidone treatment groups, placebo also decreased",decreased from baseline
